In PubChem BioAssay AID1850 (Southern Research Specialized Biocontainment Screening …, 2009):

Tested on: Salmonella Typhi PhoP-promoter GFP reporter, fluorescence, 4 h
Experiment: Inhibition of PhoP regulon, Salmonella typhi GFP reporter cells, confirmation, 4 h (AID 1850)

Question: `C[C@H]1COc2c(N3CCN(C)CC3)c(F)cc3c(=O)c(C(=O)O)cn1c23` was tested. Which IC50 did it give?
Answer: The IC50 was under 0.23 µM.

Question: How did the IC50 turn out when `C/C(=C\C(=O)OCCCCCCCCC(=O)O)C[C@@H]1OC[C@H](C[C@@H]2O[C@H]2[C@@H](C)[C@H](C)O)[C@@H](O)[C@H]1O` was run?
Answer: Its IC50 is 13.1 µM.

Question: How did the IC50 turn out when `COc1ccc2c(C(=O)CCl)c[nH]c2c1` was run?
Answer: Its IC50 is 66.9 µM.

Question: For `Oc1ccc(Cl)cc1Cc1cc(Cl)ccc1O`, which IC50 is on record?
Answer: Its IC50 is 33.8 µM.

Question: How did the IC50 turn out when `O=C(Cn1nc(C(F)F)cc1C(F)F)NNC(=S)Nc1ccc([N+](=O)[O-])cc1` was run?
Answer: Its IC50 is 139 µM.

Question: How did the IC50 turn out when `CCCN(CCC)CCNC(=O)C1CCN(Cc2nc(-c3ccc(Cl)cc3)oc2C)CC1` was run?
Answer: Its IC50 is 148 µM.

Question: `C#CCOCCOCCOCCNc1nc(N2CCN(C(=O)CCCCCCCCCCNC(=O)Cn3cc(CCCCCN)nn3)CC2)nc(N2CCN(C(=O)CCCCCCCCCCNC(=O)[C@H]([C@@H](C)CC)n3cc(CCCCN=C(N)N)nn3)CC2)n1` was tested. Which IC50 did it give?
Answer: The IC50 was 28.3 µM.

Question: For `O=C(CCN1CCN(c2ccccc2)CC1)N/N=C/c1ccc([N+](=O)[O-])o1`, which IC50 is on record?
Answer: Its IC50 is 138 µM.

Question: Which IC50 does the source give for `Oc1cccc2ccc(Nc3ccccn3)nc12` here?
Answer: The IC50 was 9.36 µM.

Question: `O=C1C=C(Nc2ccccc2O)c2ccccc2C1=O` was tested. Which IC50 did it give?
Answer: The IC50 was 54.5 µM.

Question: With `Fc1cccc(Nc2c3c(nc4ccccc24)CCC3)c1` as the compound, how does the IC50 read?
Answer: Its IC50 is 54.3 µM.

Question: With `Cc1cc(C2N=C(N)Nc3nc4ccccc4n32)c(C)n1-c1ccccc1Cl` (centres undefined) as the compound, how does the IC50 read?
Answer: The IC50 was 32 µM.

Question: How did the IC50 turn out when `NC(=O)SCC(=O)Nc1ccc(Cl)cc1` was run?
Answer: The IC50 was 13.6 µM.

Question: Which IC50 does the source give for `Fc1ccccc1CSc1ccc(-c2ccco2)nn1` here?
Answer: The IC50 was 133 µM.

Question: How did the IC50 turn out when `N/C(=N\OS(=O)(=O)c1ccc(Cl)cc1)c1cccnc1` was run?
Answer: The IC50 was 26.6 µM.

Question: How did the IC50 turn out when `O=C(C[n+]1cc(-c2ccccc2)n2c1CCC2)Nc1nc(-c2ccc(F)cc2)cs1` was run?
Answer: The IC50 was 38.7 µM.

Question: With `Oc1c(Cl)cc(CN2CCCCC2)c2cccnc12` as the compound, how does the IC50 read?
Answer: The IC50 was 20 µM.

Question: With `COc1cccc(NC2=NC3(CCCCC3)N=C(N)N2)c1` as the compound, how does the IC50 read?
Answer: Its IC50 is 75.6 µM.

Question: How did the IC50 turn out when `CC1(C)N=C(N)N=C(N)N1c1ccc(Oc2ccc(Cl)cc2)c(Cl)c1` was run?
Answer: Its IC50 is 33.8 µM.

Question: Which IC50 does the source give for `Cc1ccc(C(C[N+](=O)[O-])c2c(N)n(C)c(=O)n(C)c2=O)cc1` (centres undefined) here?
Answer: Its IC50 is 145 µM.

Question: `Cc1ccc(C(C[N+](=O)[O-])n2nc(C)cc2C)cc1` (centres undefined) was tested. Which IC50 did it give?
Answer: Its IC50 is 75.1 µM.

Question: Which IC50 does the source give for `C1=C(CCNc2ncnc3c2[nH]c2ccccc23)CCCC1` here?
Answer: The IC50 was 30.7 µM.

Question: How did the IC50 turn out when `Oc1ccc(C[C@@H]2CNCCN2CCCCC2CCCCC2)cc1` was run?
Answer: The IC50 was 46.8 µM.

Question: How did the IC50 turn out when `C#CCOCCOCCOCCNc1nc(N2CCN(C(=O)[C@H](Cc3ccc(O)cc3)n3cc([C@@H](N)CC(C)C)nn3)CC2)nc(N2CCN(C(=O)[C@H](Cc3cc4ccccc4[nH]3)n3cc([C@@H](N)CC(C)C)nn3)CC2)n1` was run?
Answer: Its IC50 is 105 µM.

Question: With `CCn1nc(C(=O)O)c(=O)c2cc3c(cc21)OCO3` as the compound, how does the IC50 read?
Answer: The IC50 was 34.6 µM.

Question: `Cc1cc(C2CCCCC2)n(O)c(=O)c1` was tested. Which IC50 did it give?
Answer: The IC50 was 17.2 µM.

Question: For `O=C(N/N=C/c1c(O)ccc2ccccc12)c1ccc(CO)nc1`, which IC50 is on record?
Answer: Its IC50 is 87.3 µM.

Question: For `O[C@@H](c1cc(C(F)(F)F)nc2c(C(F)(F)F)cccc12)[C@H]1CCCCN1`, which IC50 is on record?
Answer: Its IC50 is 40.3 µM.

Question: Which IC50 does the source give for `O=C(Nc1nnc(C2COc3ccccc3O2)o1)c1ccc(F)cc1` (centres undefined) here?
Answer: The IC50 was 36.5 µM.

Question: For `c1ccc2c(c1)OC(CCCN1CCCCC1)c1ccccc1S2` (centres undefined), which IC50 is on record?
Answer: The IC50 was 95.1 µM.

Question: How did the IC50 turn out when `O=C(COc1ccc(Br)cc1CNCCc1ccccc1)NCc1ccccc1` was run?
Answer: The IC50 was 106 µM.

Question: Which IC50 does the source give for `CN(C)CCCN1c2ccccc2CCc2ccc(Cl)cc21` here?
Answer: The IC50 was 102 µM.

Question: `CCN1/C(=C/c2cc[n+](C)cc2)C=Cc2cc(C)ccc21` was tested. Which IC50 did it give?
Answer: Its IC50 is 36.9 µM.

Question: How did the IC50 turn out when `O=C1C(=O)c2ccccc2-c2ccccc21` was run?
Answer: The IC50 was 20.7 µM.

Question: Which IC50 does the source give for `CCOC(=O)c1ccc(CNCc2ccc(Br)cc2)cc1` here?
Answer: Its IC50 is 78.5 µM.

Question: `Cc1ccc(Nc2nc(NCCO)c3ccccc3n2)cc1C` was tested. Which IC50 did it give?
Answer: The IC50 was 18.7 µM.

Question: Which IC50 does the source give for `Fc1ccc(Nc2c3c(nc4ccccc24)CCC3)cc1` here?
Answer: The IC50 was 35.1 µM.

Question: With `CN1CCN(CCCN2c3ccccc3Sc3ccc(C(F)(F)F)cc32)CC1` as the compound, how does the IC50 read?
Answer: Its IC50 is 46.4 µM.

Question: `Cc1cc(Cl)c(OCCCNCc2ccccc2)c(Br)c1` was tested. Which IC50 did it give?
Answer: The IC50 was 68.6 µM.
